Source: US20130071521A1, “REBAUDIOSIDE D SWEETENERS AND FOOD PRODUCTS SWEETENED WITH REBAUDIOSIDE D” (PEPSICO, INC., priority 2007, published 2013)
Where a SMILES comes first, the peptide text is derived from it.

What was measured:
[1] = Kinghorn (2002) page 138, cited from earlier work; for relative quality of taste, as compared to stevioside: stevioside is rated 0
[2] = cited from earlier work; for potency, times as sweet as sugar: commonly accepted potency figures
[3] = test system: sensory panel of twelve testers; assay: Sensory panel evaluation in water, noncarbonated beverage base and carbonated beverage base (Example 2); assay type: in vivo; parameters: Sweetness / Bitterness: scale not given here; settings: for interaction between the sweetener and the three beverage bases (initial sweetness attribute plots): water, noncarbonated and carbonated beverage base
Method: Potential beverage base effects on the initial sweetness perception of rebaudioside D were investigated by performing tests of three concentrations of rebaudioside D (Reb D) in water, in a noncarbonated beverage base, and in a carbonated beverage base, by a sensory panel of twelve testers. The numerical data generated by the sensory panel testers were then analyzed for their statistical significance.
The water employed for the tests of this Example comprised the characteristics as described in Example 1. The noncarbonated beverage base comprised purified water, and citric acid in an amount sufficient to decrease the pH of the noncarbonated beverage base to 3.1. The carbonated beverage base comprised purified water, carbon dioxide, and citric acid in an amount sufficient to decrease the pH of the noncarbonated beverage base to about 3.1. The initial sweetness characteristics of 606 parts per million (ppm) Reb D in water were compared to the initial sweetness characteristics of 606 ppm Reb D in noncarbonated beverage base and 606 ppm Reb D in carbonated beverage base.
The specific attributes tested by the sensory panel comprised sweetness, thickness, astringency, bitterness, numbing, cooling, licorice, burn/tingle and mouthcoat.

[4] = test system: sensory panel of twelve testers; assay: Sensory panel evaluation of initial sweetness characteristics of sweeteners in water (Example 1); assay type: in vivo; settings: for initial sweetness perception: FIG. 2/FIG. 4; for initial bitterness perception: FIG. 3/FIG. 5
Method: Sensory evaluations of different sweeteners at various concentrations were performed to provide comparative analysis of organoleptic characteristics of aqueous solutions of rebaudioside D, versus other sweeteners. The rebaudioside D was a stevia extract having a purity of at least 93% by weight rebaudioside D (Reb D). Initial sweetness characteristics of three concentrations of such Reb D in water were determined by a sensory panel of twelve testers. Sensory panels are well known to those of skill in the art, and comprise testers trained to evaluate the organoleptic attributes of comestibles. Typically, sensory panelists have been screened for their taste acuity and extensively trained in the use of standardized vocabulary to describe the appearance, aroma, flavor, mouthfeel and aftertaste of a wide variety of products, as well as scaling techniques to quantify the attributes. The numerical data generated by the sensory panel testers were then analyzed for their statistical significance.
The water employed in the tests of Example 1 comprised purified water as described in detail above, and having a pH of 7.0. The initial sweetness characteristics of 1200 parts per million (ppm) Reb D in water were compared to the initial sweetness characteristics of aqueous solutions of each of 1200 ppm rebaudioside A (Reb A), sucrose, aspartame and sucralose. The rebaudioside A was a stevia extract comprising a purity of 95% by weight rebaudioside A (PureCircle USA Inc., Oak Brook, Ill.). The specific attributes tested by the sensory panel comprised sweetness, thickness, astringency, bitterness, numbing, cooling and licorice.
The initial sweetness characteristics of other concentrations of rebaudioside D in water were also tested and compared to the same concentrations of rebaudioside A in water. […] FIGS. 2 through 5 illustrate the differences in the characteristics of sweetness and bitterness attributes between Reb D and Reb A.

[5] = 360 ppm (sucrose 5.4 brix), FIGS. 16-18
[6] = 606 ppm (sucrose 8.5 brix), FIGS. 13-15
[7] = CSD (carbonated beverage base), 360 ppm
[8] = CSD (carbonated beverage base), 606 ppm
[9] = High Level, 1200 ppm, averaged across all three beverage bases
[10] = Low-Medium Level, 360 ppm, averaged across all three beverage bases
[11] = Medium Level, 606 ppm, averaged across all three beverage bases
[12] = NCB (noncarbonated beverage base), 360 ppm
[13] = NCB (noncarbonated beverage base), 606 ppm

In the case of `C=C1C[C@@]23CC[C@H]4[C@@](C)(CCC[C@@]4(C)C(=O)O[C@@H]4O[C@H](CO)[C@@H](O)[C@H](O)[C@H]4O)[C@@H]2CC[C@]1(O[C@@H]1O[C@H](CO)[C@@H](O)[C@H](O)[C@H]1O[C@@H]1O[C@H](CO)[C@@H](O)[C@H](O)[C@H]1O)C3` [stevioside], the “relative quality of taste, as compared to stevioside” value [1] is given as 0 and the “potency, times as sweet as sugar” value [2] is given as 100-250 times as sweet as sugar.

In the case of `C[C@H](CC[C@@H](O[C@@H]1O[C@H](CO[C@@H]2O[C@H](CO)[C@@H](O)[C@H](O)[C@H]2O)[C@@H](O)[C@H](O)[C@H]1O[C@@H]1O[C@H](CO)[C@@H](O)[C@H](O)[C@H]1O)C(C)(C)O)[C@H]1CC[C@@]2(C)[C@@H]3CC=C4[C@@H](CC[C@H](O[C@@H]5O[C@H](CO[C@@H]6O[C@H](CO)[C@@H](O)[C@H](O)[C@H]6O)[C@@H](O)[C@H](O)[C@H]5O)C4(C)C)[C@]3(C)[C@H](O)C[C@]12C` [Mogroside V], the “potency, times as sweet as sugar” value [2] is given as 100-300 times as sweet as sugar.

In the case of `COC(=O)[C@H](Cc1ccccc1)NC(=O)[C@H](CC(=O)O)NCCC(C)(C)C` [Neotame], the “potency, times as sweet as sugar” value [2] is listed as 8,000 times as sweet as sugar.

In the case of `CC1=CC(=O)NS(=O)(=O)O1` [Acesulfame-K], the “potency, times as sweet as sugar” value [2] is listed as 200 times as sweet as sugar.

For `COc1ccc(CCC(=O)c2c(O)cc(O[C@@H]3O[C@H](CO)[C@@H](O)[C@H](O)[C@H]3O[C@@H]3O[C@@H](C)[C@H](O)[C@@H](O)[C@H]3O)cc2O)cc1O` [Neohesperidin dihydrochalcone], the “potency, times as sweet as sugar” value [2] is given as 300 times as sweet as sugar.

In the case of `C=C1C[C@@]23CC[C@H]4[C@@](C)(CCC[C@@]4(C)C(=O)O[C@@H]4O[C@H](CO)[C@@H](O)[C@H](O)[C@H]4O)[C@@H]2CC[C@]1(O[C@@H]1O[C@H](CO)[C@@H](O)[C@H](O[C@@H]2O[C@H](CO)[C@@H](O)[C@H](O)[C@H]2O)[C@H]1O[C@@H]1O[C@H](CO)[C@@H](O)[C@H](O)[C@H]1O)C3` [Reb A, rebaudioside A, reference compound], the “interaction between the sweetener and the three beverage bases (initial sweetness attribute plots)” value [3, 5] is reported as “no significant interaction”, the “interaction between the sweetener and the three beverage bases (initial sweetness attribute plots)” value [3, 6] is reported as “no significant interaction” and the Bitterness [3, 7] is reported as 20.5. For the same compound, the Sweetness [3, 7] was 50.7, the Bitterness [3, 8] was 28.2 and the Sweetness [3, 8] was 66.0. For the same compound, the Bitterness [3, 9] was 45.1, the Sweetness [3, 9] was 70.6 and the Bitterness [3, 10] was 21.0. The Sweetness [3, 10] was 52.6, the Bitterness [3, 11] was 33.4 and the Sweetness [3, 11] was 63.5. For the same compound, the Bitterness [3, 12] was 24.4, the Sweetness [3, 12] was 52.3 and the Bitterness [3, 13] was 29.8. It also gave a Sweetness [3, 13] of 68.5, a Bitterness ([3]; Water, 360 ppm) of 21.0 and a Sweetness ([3]; Water, 360 ppm) of 52.6. The Bitterness ([3]; Water, 606 ppm) was 33.4, the Sweetness ([3]; Water, 606 ppm) was 63.5 and the initial sweetness perception ([4]; 360 ppm in water) was “about 60”. For the same compound, the initial bitterness perception ([4]; 360 ppm in water) was “about 38”, the initial sweetness perception ([4]; 1200 ppm in water) was “about 68” and the initial bitterness perception ([4]; 1200 ppm in water) was “about 85”. For the same compound, the “sweetness (value reported by Kinghorn)” value [1] was 242, the “relative quality of taste, as compared to stevioside” value [1] was “+2” and the “sweetness relative to sucrose” value ([2]; background statement) was “approximately 200 times sweeter than sucrose”. For the same compound, the “potency, times as sweet as sugar” value [2] was 150-200 times as sweet as sugar.

For `OC[C@H]1O[C@H](O[C@]2(CCl)O[C@H](CCl)[C@@H](O)[C@@H]2O)[C@H](O)[C@@H](O)[C@H]1Cl` [Sucralose], the “potency, times as sweet as sugar” value [2] is given as 600 times as sweet as sugar.

For `COC(=O)[C@H](Cc1ccccc1)NC(=O)[C@@H](N)CC(=O)O` [Aspertame] (HELM PEPTIDE1{D.F.[CO[*:1]]}$$$$V2.0), the “potency, times as sweet as sugar” value [2] is listed as 200 times as sweet as sugar.

For `OC[C@H]1O[C@@](CO)(O[C@H]2O[C@H](CO)[C@@H](O)[C@H](O)[C@H]2O)[C@@H](O)[C@@H]1O` [sucrose, reference compound], the “interaction between the sweetener and the three beverage bases (initial sweetness attribute plots)” value [3, 5] was “no significant interaction” and the “interaction between the sweetener and the three beverage bases (initial sweetness attribute plots)” value [3, 6] was “no significant interaction”.

For `O=C1NS(=O)(=O)c2ccccc21` [Saccharin], the “potency, times as sweet as sugar” value [2] is listed as 300 times as sweet as sugar.
